{"source": "PubChem BioAssay AID276", "about": "(DTP/NCI, 2004)", "test_system": "B6C3F1 mice, Lewis lung carcinoma iv, survival T/C", "assay": "NCI In Vivo Anticancer Drug Screen. Data for tumor model Lewis Lung Carcinoma (intravenous) in B6C3F1 mice", "conditions": "endpoint: median survival time, schedule: Q01DX009 (ip), higher = longer survival", "experimental": "The antitumor activity of compounds was measured in mice bearing transplantable tumors. Survival or tumor size were measured and the results are expressed as the measurement made in the treated group (T) divided by the measurement made in the vehicle treated control group (C). The tumor model used in this assay is Lewis Lung Carcinoma (intravenous) in B6C3F1 mice", "note": "“And” between values parts separate entries of the source, which are not always exact repeats. Equal values may be shown once. Toxic doses and inconclusive results are not listed.", "data": [{"smiles": "Oc1c(Cl)cc(Cl)cc1C=NCCSc1ccc(Cl)cc1", "values": [{"measurement": "T/C", "setting": "dose: 25.0 mg/kg/injection, vehicle: Klucel (hydroxypropylcellulose) (HPC)", "value": "94 % of control and 105 % of control"}, {"measurement": "T/C", "setting": "dose: 50.0 mg/kg/injection, vehicle: Klucel (hydroxypropylcellulose) (HPC)", "value": "98 % of control and 101 % of control"}, {"measurement": "T/C", "setting": "dose: 100.0 mg/kg/injection, vehicle: Klucel (hydroxypropylcellulose) (HPC)", "value": "97 % of control and 101 % of control"}, {"measurement": "T/C", "setting": "dose: 200.0 mg/kg/injection, vehicle: Klucel (hydroxypropylcellulose) (HPC)", "value": "97 % of control and 105 % of control"}, {"measurement": "T/C", "setting": "dose: 400.0 mg/kg/injection, vehicle: Klucel (hydroxypropylcellulose) (HPC)", "value": "101 % of control"}]}, {"smiles": "COc1cccc2c1C(=O)c1c(O)c3c(c(O)c1C2=O)C[C@@](O)(C(C)=O)C[C@@H]3OC1CC(N)C(O)C(C)O1", "note": "(stereo not given in full)", "values": [{"measurement": "T/C", "setting": "dose: 0.25 mg/kg/injection, vehicle: saline", "value": "86 % of control"}, {"measurement": "T/C", "setting": "dose: 0.5 mg/kg/injection, vehicle: saline", "value": "123 % of control"}, {"measurement": "T/C", "setting": "dose: 1.0 mg/kg/injection, vehicle: saline", "value": "112 % of control"}]}, {"smiles": "CSc1ncnc2c1ncn2C1OC(CO)C(O)C1O", "note": "(stereo not given)", "values": [{"measurement": "T/C", "setting": "dose: 3.12 mg/kg/injection, vehicle: saline + alcohol", "value": "96 % of control"}, {"measurement": "T/C", "setting": "dose: 6.25 mg/kg/injection, vehicle: saline + alcohol", "value": "97 % of control"}, {"measurement": "T/C", "setting": "dose: 12.5 mg/kg/injection, vehicle: saline + alcohol", "value": "100 % of control"}, {"measurement": "T/C", "setting": "dose: 25.0 mg/kg/injection, vehicle: saline + alcohol", "value": "105 % of control"}, {"measurement": "T/C", "setting": "dose: 50.0 mg/kg/injection, vehicle: saline + alcohol", "value": "117 % of control"}]}, {"smiles": "O=NN(CCCl)C(=O)NC1CCCCC1", "values": [{"measurement": "T/C", "setting": "dose: 1.0 mg/kg/injection, vehicle: Klucel (hydroxypropylcellulose) (HPC)", "value": "98 % of control"}, {"measurement": "T/C", "setting": "dose: 2.0 mg/kg/injection, vehicle: Klucel (hydroxypropylcellulose) (HPC)", "value": "112 % of control and 120 % of control"}, {"measurement": "T/C", "setting": "dose: 2.0 mg/kg/injection, vehicle: other", "value": "108 % of control"}, {"measurement": "T/C", "setting": "dose: 4.0 mg/kg/injection, vehicle: other", "value": "100 % of control"}, {"measurement": "T/C", "setting": "dose: 8.0 mg/kg/injection, vehicle: Klucel (hydroxypropylcellulose) (HPC)", "value": "295 % of control and 314 % of control"}, {"measurement": "T/C", "setting": "dose: 8.0 mg/kg/injection, vehicle: other", "value": "100 % of control"}, {"measurement": "T/C", "setting": "dose: 16.0 mg/kg/injection, vehicle: other", "value": "119 % of control"}, {"measurement": "T/C", "setting": "dose: 32.0 mg/kg/injection, vehicle: other", "value": "166 % of control"}]}, {"smiles": "CCOc1cc2c(cc1C(C)c1ccc(OC)cc1)OCO2", "note": "(stereo not given)", "values": [{"measurement": "T/C", "setting": "dose: 12.5 mg/kg/injection, vehicle: distilled water + Tween-80 + alcohol", "value": "104 % of control"}, {"measurement": "T/C", "setting": "dose: 12.5 mg/kg/injection, vehicle: distilled water + alcohol", "value": "106 % of control"}, {"measurement": "T/C", "setting": "dose: 25.0 mg/kg/injection, vehicle: distilled water + Tween-80 + alcohol", "value": "103 % of control"}, {"measurement": "T/C", "setting": "dose: 25.0 mg/kg/injection, vehicle: distilled water + alcohol", "value": "104 % of control"}, {"measurement": "T/C", "setting": "dose: 50.0 mg/kg/injection, vehicle: DMSO", "value": "102 % of control"}, {"measurement": "T/C", "setting": "dose: 50.0 mg/kg/injection, vehicle: distilled water + Tween-80 + alcohol", "value": "103 % of control"}, {"measurement": "T/C", "setting": "dose: 50.0 mg/kg/injection, vehicle: distilled water + alcohol", "value": "112 % of control"}, {"measurement": "T/C", "setting": "dose: 100.0 mg/kg/injection, vehicle: distilled water + alcohol", "value": "108 % of control"}, {"measurement": "T/C", "setting": "dose: 200.0 mg/kg/injection, vehicle: distilled water + alcohol", "value": "110 % of control"}]}, {"smiles": "Nc1nc(=S)c2ncn(C3CC(O)C(CO)O3)c2[nH]1", "note": "(stereo not given)", "values": [{"measurement": "T/C", "setting": "dose: 12.5 mg/kg/injection, vehicle: suspension in saline", "value": "113 % of control"}, {"measurement": "T/C", "setting": "dose: 25.0 mg/kg/injection, vehicle: suspension in saline", "value": "100 % of control"}, {"measurement": "T/C", "setting": "dose: 50.0 mg/kg/injection, vehicle: suspension in saline", "value": "108 % of control"}, {"measurement": "T/C", "setting": "dose: 100.0 mg/kg/injection, vehicle: suspension in saline", "value": "103 % of control"}, {"measurement": "T/C", "setting": "dose: 200.0 mg/kg/injection, vehicle: suspension in saline", "value": "95 % of control"}, {"measurement": "T/C", "setting": "dose: 400.0 mg/kg/injection, vehicle: suspension in saline", "value": "90 % of control"}]}, {"smiles": "NC(=S)c1cn(C2OC(CO)C(O)C2O)c2ncnc(N)c12", "note": "(stereo not given)", "values": [{"measurement": "T/C", "setting": "dose: 0.62 mg/kg/injection, vehicle: suspension in saline", "value": "100 % of control"}, {"measurement": "T/C", "setting": "dose: 1.25 mg/kg/injection, vehicle: suspension in saline", "value": "90 % of control"}, {"measurement": "T/C", "setting": "dose: 2.5 mg/kg/injection, vehicle: suspension in saline", "value": "99 % of control"}, {"measurement": "T/C", "setting": "dose: 5.0 mg/kg/injection, vehicle: suspension in saline", "value": "94 % of control"}]}]}
